# Reference: patent publication US5633248A, “Amine compounds, their production and use” (priority 1994, dated 1997)
# Where a name gives a salt, the structure may show the parent alone.
# How the values were obtained:
# [1] = molecular target: T1, Rat GnRH Receptor (Rattus norvegicus, UniProt P30969); experiment: ^125 I-leuprolerin binding inhibition, rat anterior pituitary membrane fraction; design: species or system rat (Wistar); settings: 4° C. for 90 minutes, read-out: GnRH-receptor binding inhibitory activity (IC50, μM) Rat
# T1 construct: from tissue; host or cells: anterior pituitary of male Wistar rats (8 weeks old), membrane fraction
# T1 sequence (P30969 1-327): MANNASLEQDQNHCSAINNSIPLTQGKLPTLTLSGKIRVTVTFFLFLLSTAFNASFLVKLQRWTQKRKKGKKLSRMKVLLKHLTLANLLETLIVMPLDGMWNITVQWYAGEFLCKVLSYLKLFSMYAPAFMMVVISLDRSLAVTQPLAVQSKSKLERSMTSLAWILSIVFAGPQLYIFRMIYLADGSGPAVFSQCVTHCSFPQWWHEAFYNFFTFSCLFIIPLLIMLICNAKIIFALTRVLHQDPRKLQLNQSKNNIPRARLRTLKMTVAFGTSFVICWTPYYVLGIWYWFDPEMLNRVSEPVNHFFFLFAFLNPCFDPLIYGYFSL
# Method: A tube was filled with 10 μl of an aqueous solution of leuprolerin (3×10^4 M) and lactoperoxidase (0.01 mg/ml) followed by addition of 10 μl of Na^125 I solution (37 MBq). After stirring, 10 μl of 0.001% H2 O2 was added and the reaction was conducted at room temperature for 20 minutes. The reaction was stopped by adding 700 μl of 0.05% TFA and the reaction mixture was subjected to reversed-phase HPLC under the conditions set forth below. ^125 I-leuprolerin was eluted with a retention time of 26-27 minutes. Forty rats (8 weeks old, male) of Wistar strain were decapitated under no anesthesia and the anterior pituitary isolated from each animal was washed with an ice-cooled homogenate buffer (25 mM Tris (tris(hydroxylmethyl)aminomethane)-HCl, 0.3M sucrose, 1 mM EGTA (ethylene-bis(oxyethylenenitrilo)tetraacetic acid), 0.25 mM PMSF (phenylmethylsulfonyl fluoride), 10 U/ml aprotinin, 1 μg/ml pepstatin, 20 μg/ml leupeptin, 100 μg/ml phosphoramidon, 0.03% sodium azide; pH 7.5). The anterior pituitary was suspended in 2 ml of the same homogenate buffer as above and homogenized using a Polytron homogenizer. The homogenate thus prepared was centrifuged at 700 xg for 15 minutes and the supernatant was transferred to an ultracentrifuge cuvette and further centrifuged at 100,000 xg for 1 hour to provide a membrane fraction pellet. This pellet was suspended in 2 ml of an assay buffer (25 mM Tris-HCl, 1 mM ethylenediaminetetraacetic acid (EDTA), 0.1% bovine serum albumin (BSA), 0.25 mM PMSF, 1 μg/ml pepstatin, 20 μg/ml leupeptin, 100 μg/ml phosphoramidon, 0.03% sodium azide; pH 7.5) and centrifuged at 100,000 xg for 1 hour. The membrane fraction recovered as a pellet was resuspended in 10 ml of the same assay buffer as above, distributed into vials, preserved at -80° C., and reconstituted before use. The rat and human membrane fractions prepared under (B) and (D) were respectively diluted with the assay buffer to make 200 μg/ml each and 188 μl aliquots of each dilution were distributed into tubes. The bovine membrane fraction prepared under (C) was diluted with the assay buffer to make 750 μg/ml and 188 μl aliquots of the dilution were distributed into tubes. When the rat anterior pituitary membrane fraction was used, 2 μl of 0.1 mM compound/60% dimethyl sulfoxide (DMSO) and 10 μl of 38 nM ^125 I-leuprolerin were concurrently added. […] For determination of maximum binding, a reaction mixture was prepared by adding 2 μl of 60% DMSO and 10 μl of 38 nM ^125 I-leuprolerin. For determination of non-specific binding, a reaction mixture was prepared using 2 μl of 100 μM leuprolerin/60% DMSO and 10 μl of […] ^125 I-leuprolerin. When the rat and bovine anterior pituitary membrane fractions were used, each reaction was carried out at 4° C. for 90 minutes. On the other hand, when the human GnRH receptor-expressed CHO cell membrane fraction was used, the reaction was conducted at 25° C. for 60 minutes. After completion of the reaction, the reaction mixture was suction-filtered through a polyethyleneimine-treated Whatman glass filter (GF-F) [trademark;whatman]. After filtration, the radioactivity of the residual ^125 I-leuprolerin on the filter was measured using a γ-counter. The computation formula of (TB-SB)/(TB-NSB)×100 (SB=radioactivity bound in the presence of the test compound, TB=maximum amount of radioactivity bound, NSB=amount of radioactivity nonspecifically bound) was calculated to find the binding inhibition rate for the test compound. Moreover, the inhibition rate was determined by varying the concentration of each test compound and the concentration of the compound causing 50% inhibition of binding (IC50 value) was calculated by Hill plot.
# [2] = molecular target: T2, Human GnRH receptor (Homo sapiens, UniProt P30968); experiment: ^125 I-leuprolerin binding inhibition, human GnRH receptor-expressed CHO cell membrane fraction; settings: 25° C. for 60 minutes, read-out: GnRH-receptor binding inhibitory activity (IC50, μM) Man
# T2 construct: expressed in transfected cells; host or cells: CHO (Chinese hamster ovary) cells, membrane fraction
# T2 sequence (P30968 1-328): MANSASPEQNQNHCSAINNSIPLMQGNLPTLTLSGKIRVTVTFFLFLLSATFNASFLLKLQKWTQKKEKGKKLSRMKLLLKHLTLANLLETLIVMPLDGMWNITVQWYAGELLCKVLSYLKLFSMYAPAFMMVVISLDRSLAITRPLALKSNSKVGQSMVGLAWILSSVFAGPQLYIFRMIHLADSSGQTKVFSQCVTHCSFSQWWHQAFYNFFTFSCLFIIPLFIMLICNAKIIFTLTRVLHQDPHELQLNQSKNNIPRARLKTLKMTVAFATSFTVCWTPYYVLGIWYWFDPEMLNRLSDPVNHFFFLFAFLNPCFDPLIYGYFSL
# Method: A tube was filled with 10 μl of an aqueous solution of leuprolerin (3×10^4 M) and lactoperoxidase (0.01 mg/ml) followed by addition of 10 μl of Na^125 I solution (37 MBq). After stirring, 10 μl of 0.001% H2 O2 was added and the reaction was conducted at room temperature for 20 minutes. The reaction was stopped by adding 700 μl of 0.05% TFA and the reaction mixture was subjected to reversed-phase HPLC under the conditions set forth below. ^125 I-leuprolerin was eluted with a retention time of 26-27 minutes. […] To the sediment was added 10 ml of a cell homogenate buffer (10 mM NaHCO3, 5 mM EDTA, pH 7.5) and the mixture was homogenized using a Polytron homogenizer. The homogenate was centrifuged at 400 xg for 15 minutes and the supernatant was transferred to an ultracentrifuge cuvette and centrifuged at 100,000 xg for 1 hour to prepare a membrane fraction pellet. This pellet was suspended in 2 ml of the assay buffer and further centrifuged at 100,000 xg for 1 hour. The membrane fraction recovered as a pellet was resuspended in 20 ml of the assay buffer, distributed into vials, preserved at -80° C., and reconstituted before use. The rat and human membrane fractions prepared under (B) and (D) were respectively diluted with the assay buffer to make 200 μg/ml each and 188 μl aliquots of each dilution were distributed into tubes. The bovine membrane fraction prepared under (C) was diluted with the assay buffer to make 750 μg/ml and 188 μl aliquots of the dilution were distributed into tubes. When the rat anterior pituitary membrane fraction was used, 2 μl of 0.1 mM compound/60% dimethyl sulfoxide (DMSO) and 10 μl of 38 nM ^125 I-leuprolerin were concurrently added. […] For determination of maximum binding, a reaction mixture was prepared by adding 2 μl of 60% DMSO and 10 μl of 38 nM ^125 I-leuprolerin. For determination of non-specific binding, a reaction mixture was prepared using 2 μl of 100 μM leuprolerin/60% DMSO and 10 μl of […] ^125 I-leuprolerin. When the rat and bovine anterior pituitary membrane fractions were used, each reaction was carried out at 4° C. for 90 minutes. On the other hand, when the human GnRH receptor-expressed CHO cell membrane fraction was used, the reaction was conducted at 25° C. for 60 minutes. After completion of the reaction, the reaction mixture was suction-filtered through a polyethyleneimine-treated Whatman glass filter (GF-F) [trademark;whatman]. After filtration, the radioactivity of the residual ^125 I-leuprolerin on the filter was measured using a γ-counter. The computation formula of (TB-SB)/(TB-NSB)×100 (SB=radioactivity bound in the presence of the test compound, TB=maximum amount of radioactivity bound, NSB=amount of radioactivity nonspecifically bound) was calculated to find the binding inhibition rate for the test compound. Moreover, the inhibition rate was determined by varying the concentration of each test compound and the concentration of the compound causing 50% inhibition of binding (IC50 value) was calculated by Hill plot.
SMILES,IC50 [1] [µM],IC50 [2] [µM]
"COc1ccc2c(c1)CCC1(CCCCN1CCCC(CCNC(C)=O)(c1ccccc1)c1ccccc1)C2 (centres unmarked) [II-37, 3,4-Dihydro-6-methoxy-1'-(6-acetylamino-4,4-diphenylhexyl)spiro[naphthalene-2(1H),2'-piperidine] dihydrochloride]",0.3,
"COc1cc2c(cc1OC)CC(N(CCCC(CCCNC(C)=O)(c1ccccc1)c1ccccc1)Cc1ccccc1)CC2 (centres unmarked) [II-43, 7-Acetylamino-1-{N-benzyl-N-[2-(6,7-dimethoxy-1,2,3,4-tetrahydronaphthyl)]amino}-4,4-diphenylheptane dihydrochloride]",0.2,
"COc1ccc2c(c1)CCC1(CCCCN1CCCC(CCCNC(C)=O)(c1ccccc1)c1ccccc1)C2 (centres unmarked) [II-45, 1'-(7-Acetylamino-4,4-diphenylheptyl)-3,4-dihydro-6-methoxyspiro[naphthalene-2(1H),2'-piperidine] dihydrochloride]",0.08,
"COc1cc2c(cc1OC)CC1(CCCCN1CCCC(CCCNC(=O)Cc1ccc(F)cc1)(c1ccccc1)c1ccccc1)CC2 (centres unmarked) [II-50, 3,4-Dihydro-6,7-dimethoxy-1'-{4,4-diphenyl-7-[(4-fluorophenylacetyl)amino]heptyl}spiro[naphthalene-2(1H),2'-piperidine] hydrochloride]",0.0007,0.08
"COc1cc2c(cc1OC)CC1(CCCCN1CCCC(CCCNC(=O)Cc1ccc(Cl)cc1)(c1ccccc1)c1ccccc1)CC2 (centres unmarked) [II-51, 3,4-Dihydro-6,7-dimethoxy-1'-{4,4-diphenyl-7-[(4-chlorophenylacetyl)amino]heptyl}spiro[naphthalene-2(1H),2'-piperidine] hydrochloride]",0.002,0.08
"COc1ccc(CC(=O)NCCCC(CCCN2CCCCC23CCc2cc(OC)c(OC)cc2C3)(c2ccccc2)c2ccccc2)cc1 (centres unmarked) [II-58, 3,4-Dihydro-6,7-dimethoxy-1'-{4,4-diphenyl-7-[(4-methoxyphenylacetyl)amino]heptyl}spiro[naphthalene-2(1H),2'-piperidine] hydrochloride]",0.0016,0.11
"COc1cc2c(cc1OC)CC1(CCCCN1CCCC(CCCNC(=O)COc1ccccc1)(c1ccccc1)c1ccccc1)CC2 (centres unmarked) [II-61, 3,4-Dihydro-6,7-dimethoxy-1'-{4,4-diphenyl-7-[(phenoxyacetyl)amino]heptyl}spiro[naphthalene-2(1H),2'-piperidine] hydrochloride]",0.01,

# More lines, in order of falling IC50 [1], values ahead:
IC50 [1] [µM],IC50 [2] [µM],SMILES
0.4,,"COc1cccc2c1CC1(CCCCN1CCCC(CCCNC(C)=O)(c1ccccc1)c1ccccc1)CC2 (centres unmarked) [II-44, 1'-(7-Acetylamino-4,4-diphenylheptyl)-3,4-dihydro-8-methoxyspiro[naphthalene-2(1H),2'-piperidine] dihydrochloride]"
0.02,0.4,"COc1ccc(CC(=O)NCCCC(CCCN2CCCCC23CCc2cc(OC)c(OC)cc2C3)(c2ccccc2)c2ccccc2)cc1OC (centres unmarked) [II-59, 3,4-Dihydro-6,7-dimethoxy-1'-{7-[(3,4-dimethoxyphenylacetyl)amino]-4,4-diphenylheptyl}spiro[naphthalene-2(1H),2'-piperidine] hydrochloride]"
0.01,0.8,"COc1cc2c(cc1OC)CC1(CCCCN1CCCC(CCCNC(=O)Cc1ccc([N+](=O)[O-])cc1)(c1ccccc1)c1ccccc1)CC2 (centres unmarked) [II-53, 3,4-Dihydro-6,7-dimethoxy-1'-{4,4-diphenyl-7-[(4-nitrophenylacetyl)amino]heptyl}spiro[naphthalene-2(1H),2'-piperidine] hydrochloride]"
0.003,,"COc1cc2c(cc1OC)CC1(CCCCN1CCCC(CCCNC(C)=O)(c1ccccc1)c1ccccc1)CC2 (centres unmarked) [II-46, 1'-(7-Acetylamino-4,4-diphenylheptyl)-3,4-dihydro-6,7-dimethoxyspiro[naphthalene-2(1H),2'-piperidine] dihydrochloride]"
0.002,0.2,"COc1cc2c(cc1OC)CC1(CCCCN1CCCC(CCCNC(=O)Cc1ccccc1)(c1ccccc1)c1ccccc1)CC2 (centres unmarked) [II-48, 3,4-Dihydro-6,7-dimethoxy-1'-[4,4-diphenyl-7-(phenylacetylamino)heptyl]spiro[naphthalene-2(1H),2'-piperidine] hydrochloride]"
0.002,0.1,"COc1cc2c(cc1OC)CC1(CCCCN1CCCC(CCCNC(=O)Cc1ccc3c(c1)OCO3)(c1ccccc1)c1ccccc1)CC2 (centres unmarked) [II-60, 3,4-Dihydro-6,7-dimethoxy-1'-{4,4-diphenyl-7-[(3,4-methylenedioxyphenylacetyl)amino]heptyl}spiro[naphthalene-2(1H),2'-piperidine] hydrochloride]"
